{"source": "patent US20090170773A1", "about": "“NOVEL USE OF G-PROTEIN-CONJUGATED RECEPTOR AND LIGAND THEREOF” (RIKEN, priority 2006, published 2009)", "key": {"RAIG3": {"molecular_target": "T1, RAIG3 (Homo sapiens, UniProt Q9NQ84)", "T1 construct": "expressed in transfected cells; host or cells: mouse insulinoma MIN6 cells, transient transfection with pIRES2-EGFP (CLONTECH) vector", "T1 sequence (Q9NQ84 1-453 isoform Q9NQ84-2)": "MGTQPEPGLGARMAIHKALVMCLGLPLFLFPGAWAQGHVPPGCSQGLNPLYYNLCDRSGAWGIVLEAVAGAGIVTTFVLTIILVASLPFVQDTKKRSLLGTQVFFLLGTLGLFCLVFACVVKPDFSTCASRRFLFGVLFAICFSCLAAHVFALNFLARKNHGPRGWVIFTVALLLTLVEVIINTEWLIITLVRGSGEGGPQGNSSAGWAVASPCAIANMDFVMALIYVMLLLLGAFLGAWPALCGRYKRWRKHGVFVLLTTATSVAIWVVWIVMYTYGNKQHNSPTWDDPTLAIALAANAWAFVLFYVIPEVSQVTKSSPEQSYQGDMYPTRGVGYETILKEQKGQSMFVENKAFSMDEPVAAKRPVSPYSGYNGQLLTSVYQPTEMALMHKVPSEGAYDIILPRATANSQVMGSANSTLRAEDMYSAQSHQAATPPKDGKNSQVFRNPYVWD", "experiment": "Insulin secretion in MIN6 cells having RAIG3 expressed forcibly (ELISA)", "type": "cell-based", "conditions": "0.6 mM 1,5-AG added to 2.8 mM glucose, FIG. 2b", "procedure": "(§1) Mouse insulinoma MIN6 cells (supplied by Dr. Junichi Miyazaki at the Division of Stem Cell Regulation Research, Department of Molecular Therapeutics, G6 Division of Pathophysiology and Therapeutics, Osaka University Graduate School of Medicine) were cultured in a 24-well plate containing a DMEM comprising 15% fetal calf serum (inactivated by treatment at 56° C. for 30 minutes), 5 μl/l β-mercaptoethanol and 4.5 g/l glucose, in an atmosphere of 5% CO2/95% air, at 37° C. and low density. cDNAs of RAIG2 and RAIG3 were obtained from a human brain or liver cDNA library by a conventional method of PCR. This was inserted into pIRES2-EGFP (CLONTECH). After 24 hours, the above-described cells were transfected with an expression vector containing the RAIG2 or RAIG3 cDNA. The transfection was performed using Lipofectamin 2000 (Invitrogen), as directed in the manufacturer's manual. After 48 hours of further cultivation, the cells were retained in a KRBB solution [129 mM NaCl, 4.8 mM KCl, 1.2 mM MgSO4, 1.2 mM KH2PO4, 4.8 mM NaHCO3, 10 mM HEPES, 2.5 mM CaCl2, 0.2% bovine serum albumin (pH adjusted to 7.4)] containing 2.8 mM glucose at 37° C. for 15 minutes, and then washed. […] Each 10 μl portion of the culture supernatant was taken, and the insulin content was measured by ELISA."}, "RAIG2": {"molecular_target": "T2, RAIG2 (Homo sapiens, UniProt Q9NZH0)", "T2 construct": "expressed in transfected cells; host or cells: mouse insulinoma MIN6 cells, transient transfection with pIRES2-EGFP (CLONTECH) vector", "T2 sequence (Q9NZH0 29-403)": "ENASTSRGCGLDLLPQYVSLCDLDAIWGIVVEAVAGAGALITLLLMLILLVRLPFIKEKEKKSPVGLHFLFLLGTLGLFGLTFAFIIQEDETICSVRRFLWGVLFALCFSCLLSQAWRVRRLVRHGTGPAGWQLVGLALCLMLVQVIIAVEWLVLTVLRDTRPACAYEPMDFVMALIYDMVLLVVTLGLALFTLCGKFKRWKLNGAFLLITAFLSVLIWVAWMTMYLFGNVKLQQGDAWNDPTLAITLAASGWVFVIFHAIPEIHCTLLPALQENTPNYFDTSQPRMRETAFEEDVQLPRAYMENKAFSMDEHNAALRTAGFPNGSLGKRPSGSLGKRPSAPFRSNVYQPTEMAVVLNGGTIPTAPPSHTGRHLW", "experiment": "Insulin secretion in MIN6 cells having RAIG2 expressed forcibly (ELISA)", "type": "cell-based, mouse", "conditions": "0.6 mM 1,5-AG added to 2.8 mM glucose, FIG. 2a", "procedure": "as §1"}}, "data": [{"smiles": "OC[C@H]1OC[C@H](O)[C@@H](O)[C@@H]1O", "note": "[1,5-AG, 1,5-anhydroglucitol]", "values": [{"measurement": "insulin release", "setting": "RAIG3", "value": "insulin release equivalent to that with 20 mM glucose"}, {"measurement": "insulin release", "setting": "RAIG2", "value": "insulin release equivalent to that with 20 mM glucose"}]}]}
